Source: US8192962B2, “Processes for detecting toxic substances” (Daikin Industries, Ltd., priority 2001, dated 2012)

System: Metabolism protein genes
Assay: DNA chip mRNA expression in yeast, metabolism protein genes (Table 7)
Format: cell-based, Saccharomyces cerevisiae S288C
Method in brief: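 Untreated cultures served as reference for log-phase S288C yeast given a growth-inhibiting, non-lethal toxicant dose for 2 h at 25° C. in YPD. Gene expression was measured on a whole-genome DNA chip from Cy3/Cy5-labeled cDNA.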

CN(C)C(=S)SSC(=S)N(C)C [(10), Tetramethylthiuram disulfide]
level of expressed mRNA in the presence/in the absence of chemical substance (yeast gene YJR143C): 0.3
The level of expressed mRNA in the presence of chemical substance/The level of expressed mRNA in the absence of chemical substance (yeast gene YJR148W): 3.0
The level of expressed mRNA in the presence of chemical substance/The level of expressed mRNA in the absence of chemical substance (yeast gene YJR155W): 18.8
The level of expressed mRNA in the presence of chemical substance/The level of expressed mRNA in the absence of chemical substance (yeast gene YKL001C): 3.4
The level of expressed mRNA in the presence of chemical substance/The level of expressed mRNA in the absence of chemical substance (yeast gene YKL035W): 1.2
level of expressed mRNA in the presence/in the absence of chemical substance (yeast gene YKL060C): 0.8
The level of expressed mRNA in the presence of chemical substance/The level of expressed mRNA in the absence of chemical substance (yeast gene YKL091C): 3.2
The level of expressed mRNA in the presence of chemical substance/The level of expressed mRNA in the absence of chemical substance (yeast gene YKL104C): 1.8
level of expressed mRNA in the presence/in the absence of chemical substance (yeast gene YKL148C): 1.7
The level of expressed mRNA in the presence of chemical substance/The level of expressed mRNA in the absence of chemical substance (yeast gene YKL152C): 1.5
level of expressed mRNA in the presence/in the absence of chemical substance (yeast gene YKL157W): 1.9
The level of expressed mRNA in the presence of chemical substance/The level of expressed mRNA in the absence of chemical substance (yeast gene YKL213C): 2.1
The level of expressed mRNA in the presence of chemical substance/The level of expressed mRNA in the absence of chemical substance (yeast gene YKL215C): 1.9
level of expressed mRNA in the presence/in the absence of chemical substance (yeast gene YKR034W): 0.6
The level of expressed mRNA in the presence of chemical substance/The level of expressed mRNA in the absence of chemical substance (yeast gene YKR039W): 2.0
The level of expressed mRNA in the presence of chemical substance/The level of expressed mRNA in the absence of chemical substance (yeast gene YLL058W): 3.6
level of expressed mRNA in the presence/in the absence of chemical substance (yeast gene YLR006C): 1.1
level of expressed mRNA in the presence/in the absence of chemical substance (yeast gene YLR044C): 1.2
level of expressed mRNA in the presence/in the absence of chemical substance (yeast gene YLR056W): 0.5
level of expressed mRNA in the presence/in the absence of chemical substance (yeast gene YLR058C): 0.1
level of expressed mRNA in the presence/in the absence of chemical substance (yeast gene YLR081W): 2.2
level of expressed mRNA in the presence/in the absence of chemical substance (yeast gene YLR089C): 0.8
The level of expressed mRNA in the presence of chemical substance/The level of expressed mRNA in the absence of chemical substance (yeast gene YLR180W): 0.9
The level of expressed mRNA in the presence of chemical substance/The level of expressed mRNA in the absence of chemical substance (yeast gene YLR273C): 2.4
level of expressed mRNA in the presence/in the absence of chemical substance (yeast gene YLR284C): 0.9
The level of expressed mRNA in the presence of chemical substance/The level of expressed mRNA in the absence of chemical substance (yeast gene YLR299W): 2.3
The level of expressed mRNA in the presence of chemical substance/The level of expressed mRNA in the absence of chemical substance (yeast gene YLR300W): 0.5
level of expressed mRNA in the presence/in the absence of chemical substance (yeast gene YLR304C): 2.2
The level of expressed mRNA in the presence of chemical substance/The level of expressed mRNA in the absence of chemical substance (yeast gene YLR307W): 0.7
The level of expressed mRNA in the presence of chemical substance/The level of expressed mRNA in the absence of chemical substance (yeast gene YLR348C): 1.3
level of expressed mRNA in the presence/in the absence of chemical substance (yeast gene YLR354C): 0.9
level of expressed mRNA in the presence/in the absence of chemical substance (yeast gene YLR372W): 0.1
level of expressed mRNA in the presence/in the absence of chemical substance (yeast gene YML022W): 0.6
The level of expressed mRNA in the presence of chemical substance/The level of expressed mRNA in the absence of chemical substance (yeast gene YML054C): 1.8
The level of expressed mRNA in the presence of chemical substance/The level of expressed mRNA in the absence of chemical substance (yeast gene YML070W): 3.9
The level of expressed mRNA in the presence of chemical substance/The level of expressed mRNA in the absence of chemical substance (yeast gene YML100W): 1.4
The level of expressed mRNA in the presence of chemical substance/The level of expressed mRNA in the absence of chemical substance (yeast gene YMR008C): 0.6
level of expressed mRNA in the presence/in the absence of chemical substance (yeast gene YMR011W): 0.7
level of expressed mRNA in the presence/in the absence of chemical substance (yeast gene YMR015C): 0.3
The level of expressed mRNA in the presence of chemical substance/The level of expressed mRNA in the absence of chemical substance (yeast gene YMR020W): 2.9
level of expressed mRNA in the presence/in the absence of chemical substance (yeast gene YMR083W): 1.1
The level of expressed mRNA in the presence of chemical substance/The level of expressed mRNA in the absence of chemical substance (yeast gene YMR105C): 2.9
The level of expressed mRNA in the presence of chemical substance/The level of expressed mRNA in the absence of chemical substance (yeast gene YMR189W): 0.9
level of expressed mRNA in the presence/in the absence of chemical substance (yeast gene YMR205C): 0.8
level of expressed mRNA in the presence/in the absence of chemical substance (yeast gene YMR261C): 1.3
The level of expressed mRNA in the presence of chemical substance/The level of expressed mRNA in the absence of chemical substance (yeast gene YMR271C): 4.4
The level of expressed mRNA in the presence of chemical substance/The level of expressed mRNA in the absence of chemical substance (yeast gene YMR296C): 0.6
level of expressed mRNA in the presence/in the absence of chemical substance (yeast gene YMR323W): 1.3
The level of expressed mRNA in the presence of chemical substance/The level of expressed mRNA in the absence of chemical substance (yeast gene YNL012W): 3.2
level of expressed mRNA in the presence/in the absence of chemical substance (yeast gene YNL025C): 1.8
The level of expressed mRNA in the presence of chemical substance/The level of expressed mRNA in the absence of chemical substance (yeast gene YNL037C): 3.2
The level of expressed mRNA in the presence of chemical substance/The level of expressed mRNA in the absence of chemical substance (yeast gene YNL045W): 1.1
The level of expressed mRNA in the presence of chemical substance/The level of expressed mRNA in the absence of chemical substance (yeast gene YNL104C): 2.0
The level of expressed mRNA in the presence of chemical substance/The level of expressed mRNA in the absence of chemical substance (yeast gene YNL106C): 1.4
The level of expressed mRNA in the presence of chemical substance/The level of expressed mRNA in the absence of chemical substance (yeast gene YNL169C): 1.1
level of expressed mRNA in the presence/in the absence of chemical substance (yeast gene YNL192W): 1.8
The level of expressed mRNA in the presence of chemical substance/The level of expressed mRNA in the absence of chemical substance (yeast gene YNL231C): 1.3
The level of expressed mRNA in the presence of chemical substance/The level of expressed mRNA in the absence of chemical substance (yeast gene YNL322C): 0.8
The level of expressed mRNA in the presence of chemical substance/The level of expressed mRNA in the absence of chemical substance (yeast gene YNL331C): 36.3
The level of expressed mRNA in the presence of chemical substance/The level of expressed mRNA in the absence of chemical substance (yeast gene YNL332W): 2.1
The level of expressed mRNA in the presence of chemical substance/The level of expressed mRNA in the absence of chemical substance (yeast gene YNR002C): 1.6
The level of expressed mRNA in the presence of chemical substance/The level of expressed mRNA in the absence of chemical substance (yeast gene YNR019W): 1.9
The level of expressed mRNA in the presence of chemical substance/The level of expressed mRNA in the absence of chemical substance (yeast gene YNR033W): 4.2
The level of expressed mRNA in the presence of chemical substance/The level of expressed mRNA in the absence of chemical substance (yeast gene YNR059W): 1.4
The level of expressed mRNA in the presence of chemical substance/The level of expressed mRNA in the absence of chemical substance (yeast gene YOL058W): 15.7
level of expressed mRNA in the presence/in the absence of chemical substance (yeast gene YOL086C): 1.2
level of expressed mRNA in the presence/in the absence of chemical substance (yeast gene YOL108C): 0.9
level of expressed mRNA in the presence/in the absence of chemical substance (yeast gene YOL116W): 1.8
The level of expressed mRNA in the presence of chemical substance/The level of expressed mRNA in the absence of chemical substance (yeast gene YOL126C): 2.4
The level of expressed mRNA in the presence of chemical substance/The level of expressed mRNA in the absence of chemical substance (yeast gene YOL143C): 1.0
The level of expressed mRNA in the presence of chemical substance/The level of expressed mRNA in the absence of chemical substance (yeast gene YOL153C): 3.2
level of expressed mRNA in the presence/in the absence of chemical substance (yeast gene YOL156W): 2.1
The level of expressed mRNA in the presence of chemical substance/The level of expressed mRNA in the absence of chemical substance (yeast gene YOL165C): 23.3
level of expressed mRNA in the presence/in the absence of chemical substance (yeast gene YOR002W): 0.9
level of expressed mRNA in the presence/in the absence of chemical substance (yeast gene YOR085W): 0.6
The level of expressed mRNA in the presence of chemical substance/The level of expressed mRNA in the absence of chemical substance (yeast gene YOR099W): 0.7
level of expressed mRNA in the presence/in the absence of chemical substance (yeast gene YOR103C): 0.9
level of expressed mRNA in the presence/in the absence of chemical substance (yeast gene YOR108W): 1.1
level of expressed mRNA in the presence/in the absence of chemical substance (yeast gene YOR128C): 0.4
The level of expressed mRNA in the presence of chemical substance/The level of expressed mRNA in the absence of chemical substance (yeast gene YOR130C): 1.7
The level of expressed mRNA in the presence of chemical substance/The level of expressed mRNA in the absence of chemical substance (yeast gene YOR136W): 3.4
level of expressed mRNA in the presence/in the absence of chemical substance (yeast gene YOR142W): 1.5
level of expressed mRNA in the presence/in the absence of chemical substance (yeast gene YOR176W): 0.5
level of expressed mRNA in the presence/in the absence of chemical substance (yeast gene YOR178C): 1.7
The level of expressed mRNA in the presence of chemical substance/The level of expressed mRNA in the absence of chemical substance (yeast gene YOR221C): 1.7
The level of expressed mRNA in the presence of chemical substance/The level of expressed mRNA in the absence of chemical substance (yeast gene YOR226C): 5.9
level of expressed mRNA in the presence/in the absence of chemical substance (yeast gene YOR251C): 0.8
The level of expressed mRNA in the presence of chemical substance/The level of expressed mRNA in the absence of chemical substance (yeast gene YOR336W): 1.5
The level of expressed mRNA in the presence of chemical substance/The level of expressed mRNA in the absence of chemical substance (yeast gene YOR347C): 0.9
level of expressed mRNA in the presence/in the absence of chemical substance (yeast gene YOR348C): 0.4
The level of expressed mRNA in the presence of chemical substance/The level of expressed mRNA in the absence of chemical substance (yeast gene YPL017C): 6.7
level of expressed mRNA in the presence/in the absence of chemical substance (yeast gene YPL028W): 0.8
level of expressed mRNA in the presence/in the absence of chemical substance (yeast gene YPL057C): 1.4
level of expressed mRNA in the presence/in the absence of chemical substance (yeast gene YPL135W): 2.8
level of expressed mRNA in the presence/in the absence of chemical substance (yeast gene YPL148C): 1.5
The level of expressed mRNA in the presence of chemical substance/The level of expressed mRNA in the absence of chemical substance (yeast gene YPR026W): 3.1
level of expressed mRNA in the presence/in the absence of chemical substance (yeast gene YPR113W): 0.8
level of expressed mRNA in the presence/in the absence of chemical substance (yeast gene YPR165W): 0.7
The level of expressed mRNA in the presence of chemical substance/The level of expressed mRNA in the absence of chemical substance (yeast gene YPR167C): 9.0
level of expressed mRNA in the presence/in the absence of chemical substance (yeast gene YPR183W): 0.6
